In one data set the target is T1, p38 MAP kinase (Homo sapiens, UniProt Q16539).
T1 construct: made in house; host or cells: E. coli (co-expressed with SEK-1 and MEKK to obtain the phosphorylated form)
The data set is described as follows: Inhibition of p-38 (MAP) kinase, in vitro assay (transfer of γ-33P from ATP to Myelin Basic Protein). The format is biochemical. To be noted: phosphorylated recombinant p38 MAP kinase, MBP substrate, γ-33P-ATP, 30° C.; read-out: IC50, μM (p-38 inhibitory activity). The protocol:
The p-38 MAP kinase inhibitory activity of compounds of this invention in vitro was determined by measuring the transfer of the γ-phosphate from γ-^33P-ATP by p-38 kinase to Myelin Basic Protein (MBP), using the a minor modification of the method described in Ahn, N. G.; et al. J. Biol. Chem. Vol. 266(7), 4220-4227, (1991).
The phosphorylated form of the recombinant p38 MAP kinase was expressed with SEK-1 and MEKK in E. Coli and then purified by affinity chromatography using a Nickel column.
The phosphorylated p38 MAP kinase was diluted in kinase buffer (20 mM 3-(N-morpholino)propanesulfonic acid, pH 7.2, 25 mM β-glycerol phosphate, 5 mM ethylene glycol-bis(beta-aminoethyl ether)-N,N,N′,N′-tetraacetic acid, 1 mM sodium vanadate, 1 mM dithiothreitol, 40 mM magnesium chloride). Test compound dissolved in DMSO or only DMSO (control) was added and the samples were incubated for 10 min at 30° C. The kinase reaction was initiated by the addition of a substrate cocktail containing MBP and γ-^33P-ATP. After incubating for an additional 20 min at 30° C., the reaction was terminated by adding 0.75% phosphoric acid. The phosphorylated MBP was then separated from the residual γ-^33P-ATP using a phosphocellulose membrane (Millipore, Bedford, Mass.) and quantitated using a scintillation counter (Packard, Meriden, Conn.).
Compounds of the invention were active in this assay.

Data set [1] concerns TNF-α Production In THP 1 Cells. The data set is described as follows: Inhibition of LPS-induced TNF-α production in THP-1 cells, in vitro assay (ELISA). In kind it is cell-based. Conditions: Homo sapiens, LPS 0.5 μg/ml, 2 h, TNF-α by ELISA, read-out: IC50, μM (inhibition of TNF-α release). The protocol:
The ability of the compounds of this invention to inhibit the TNF-α release was determined using a minor modification of the methods described in described in Blifeld, C. et al. Transplantation, Vol. 51(2), 498-503, (1991).
THP-1 cells were suspended in culture medium [RPMI (Gibco-BRL, Gailthersburg, Md.) containing 15% fetal bovine serum, 0.02 mM 2-mercaptoethanol], at a concentration of 2.5×10^6 cells/ml and then plated in 96 well plate (0.2 ml aliquots in each well). Test compounds were dissolved in DMSO and then diluted with the culture medium such that the final DMSO concentration was […]. 20 μl aliquots of test solution or only medium with DMSO (control) were added to each well. The cells were incubated for 30 min., at 37° C. LPS (Sigma, St. Louis, Mo.) was added to the wells at a final concentration of 0.5 μg/ml, and cells were incubated for an additional 2 h. At the end of the incubation period, culture supernatants were collected and the amount of TNF-α present was determined using an ELISA assay as described below.
The amount of human TNF-α present was determined by a specific trapping ELISA assay using two anti-TNF-α antibodies (2TNF-H22 and 2TNF-H34) described in Reimund, J. M., et al. GUT. Vol. 39(5), 684-689 (1996).
Polystyrene 96-well plates were coated with 50 μl per well of antibody 2TNF-H22 in PBS (10 μg/ml) and incubated in a humidified chamber at 4° C. overnight. The plates were washed with PBS and then blocked with 5% nonfat-dry milk in PBS for 1 hour at room temperature and washed with 0.1% BSA (bovine serum albumin) in PBS.
TNF standards were prepared from a stock solution of human recombinant TNF-α (R&D Systems, Minneapolis, Minn.). The concentration of the standards in the assay began at 10 ng/ml followed by 6 half log serial dilution's.
25 μl aliquots of the above culture supernatants or TNF standards or only medium (control) were mixed with 25 μl aliquots of biotinylated monoclonal antibody 2TNF-H34 (2 μg/ml in PBS containing 0.1% BSA) and then added to each well. The samples were incubated for 2 h at room temperature with gentle shaking and then washed 3 times with 0.1% BSA in PBS. 50 μl of peroxidase-streptavidin (Zymed, S. San Francisco, Calif.) solution containing 0.416 μg/ml of peroxidase-streptavidin and 0.1% BSA in PBS was added to each well. The samples were incubated for an additional 1 h at room temperature and then washed 4 times with 0.1% BSA in PBS. 50 μl of O-phenylenediamine solution (1 μg/ml O-phenylene-diamine and 0.03% hydrogen peroxide in 0.2M citrate buffer pH 4.5) was added to each well and the samples were incubated in the dark for 30 min., at room temperature. Optical density of the sample and the reference were read at 450 nm and 650 nm, respectively. TNF-α levels were determined from a graph relating the optical density at 450 nm to the concentration used.
The IC50 value was defined as the concentration of the test compound corresponding to half-maximal reduction in 450 nm absorbance. Compounds of the invention were active in this assay. The activity of selected compounds is shown below.
(In an ELISA, binding on a coated surface is turned into a signal by an enzyme label.)

SMILES strings stand for the structures. Structures can show the parent of a compound that is named as a salt.

One may read the IC50 as the concentration that gives 50% inhibition. The term melting point denotes the temperature, or range, at which the solid turns liquid.

T1 sequence (Q16539 whole entry): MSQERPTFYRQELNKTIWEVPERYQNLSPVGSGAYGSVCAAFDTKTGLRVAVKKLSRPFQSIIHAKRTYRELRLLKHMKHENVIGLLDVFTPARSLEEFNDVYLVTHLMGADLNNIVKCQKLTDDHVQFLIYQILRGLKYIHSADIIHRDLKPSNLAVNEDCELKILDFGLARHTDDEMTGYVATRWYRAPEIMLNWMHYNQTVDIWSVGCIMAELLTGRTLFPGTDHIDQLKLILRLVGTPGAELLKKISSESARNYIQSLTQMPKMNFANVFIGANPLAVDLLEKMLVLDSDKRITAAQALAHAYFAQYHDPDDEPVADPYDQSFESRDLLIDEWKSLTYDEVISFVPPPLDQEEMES

On to `Nc1c(C(=O)c2cccc(C#CCN3CCOCC3)c2)cnn1-c1ccc(F)cc1` [compound 3, 5-Amino-1-(4-fluorophenyl)-4-[3-{3-(morpholin-4-yl)prop-1-ynyl}benzoyl]pyrazole], for which, at p38 MAP kinase, the IC50 came to 1.78 µM.

As for `Nc1c(C(=O)c2cccc(OCCN3CCOCC3)c2)cnn1-c1ccc(F)cc1` [compound 14, 5-Amino-1-(4-fluorophenyl)-4-[3-{2-(morpholin-4-yl)ethoxy}benzoyl]pyrazole hydrochloride], on p38 MAP kinase, the IC50 is 1.27 µM.

On to `Nc1c(C(=O)c2cccc(CCCN3CCOCC3)c2)cnn1-c1ccc(F)cc1` [compound 6, 5-Amino-1-(4-fluorophenyl)-4-[3-(3-morpholin-4-ylpropyl)benzoyl]pyrazole hydrochloride], for which the IC50 on p38 MAP kinase came out at 1.74 µM. Regarding `Nc1c(C(=O)c2cccc(C=CCN3CCOCC3)c2)cnn1-c1ccc(F)cc1` [compound 4], the melting point lay within 161.6 to 162.8 °C. For the same molecule, the IC50 in data set [1] was 1.26 µM. In addition, on p38 MAP kinase, the IC50 was 6.18 µM. `Nc1c(C(=O)c2cccc(N3CCC(Cc4ccccc4)CC3)c2)cnn1-c1ccc(F)cc1` [compound 33] registered a melting point of 156.2 to 160.9 °C. Moreover, in data set [1], the IC50 was found to be 0.14 µM. Moreover, on p38 MAP kinase, the IC50 was found to be 1.12 µM. With `Nc1c(C(=O)c2cccc(OCCN3CCOCC3)c2)cnn1-c1ccc(F)cc1` [compound 13, 5-amino-1-(4-fluorophenyl)-4-[3-(2-morpholin-4-ylethoxy)benzoyl]pyrazole], the IC50 in data set [1] was found to be 0.77 µM. Turning to `CN1CCN(C(=O)COc2cccc(C(=O)c3cnn(-c4ccc(F)cc4)c3N)c2)CC1` [compound 38], the results for the IC50 (in data set [1]; on p38 MAP kinase) were 0.69 µM and 6.31 µM, respectively.

The molecule `Nc1c(C(=O)c2ccc(C=CCN3CCOCC3)cc2)cnn1-c1ccc(F)cc1` [compound 2] yielded a melting point of 166.7 to 168.2 °C. For the same molecule, the IC50 in data set [1] is 6.3 µM. In addition, the IC50 at p38 MAP kinase came to 3.29 µM.

Turning to `Nc1c(C(=O)c2cccc(OC[C@@H]3COC(=O)O3)c2)cnn1-c1ccc(F)cc1` [compound 171, 5-amino-1-(4-fluorophenyl)-4-{3-[(1,3-dioxolan-2-on-4(R)-yl)methoxy]benzoyl}pyrazole], the melting point is 144.3 to 144.9 °C. Consider `Nc1c(C(=O)c2cccc(C=CS(N)(=O)=O)c2)cnn1-c1ccc(F)cc1` [compound 10, 5-amino-4-[3-(2-aminosulfonylethenyl)benzoyl]-1-(4-fluorophenyl)pyrazole], for which, in data set [1], the IC50 was 1.62 µM. Take `Nc1c(C(=O)c2cccc(CCCN3CCCCC3)c2)cnn1-c1ccc(F)cc1` (as salt: HCl) [compound 32, 5-amino-1-(4-fluorophenyl)-4-[3-(3-piperidin-1-ylpropyl)benzoyl]pyrazole]: the melting point was 227.1 to 277.7 °C. `Cc1ccccc1-n1ncc(C(=O)c2cccc(C(O)CO)c2)c1N` (stereo not shown) [compound 109, 5-amino-1-(2-methylphenyl)-4-[3-(1,2-dihydroxyethyl)benzoyl]pyrazole] registered a melting point of 83 to 85.5 °C.

As for `Nc1c(C(=O)c2cccc(OCCN3CCOCC3)c2)cnn1-c1c(Cl)cccc1Cl` [compound 98, 5-amino-1-(2,6-dichlorophenyl)-4-[3-(2-morpholin-4-ylethoxy)benzoyl]pyrazole], the melting point fell in the range of 144.2 to 145.1 °C. On the same count and under the same terms, the result for `CC(C)NC(=O)Oc1cccc(C(=O)c2cnn(-c3ccc(F)cc3)c2N)c1` reads 225.2 to 230.1 °C; that for `Nc1c(C(=O)c2cccc(OCC(=O)O)c2)cnn1-c1ccc(F)cc1` [compound 119], 215.9 to 216.2 °C.

Turning to `Nc1c(C(=O)c2cccc(OCCCN3CCCCC3)c2)cnn1-c1ccc(F)cc1` [compound 21], the IC50 worked out at 0.61 µM in data set [1] and 2.18 µM on p38 MAP kinase. On to `Nc1c(C(=O)c2cccc(-c3cccnc3)c2)cnn1-c1ccc(S(N)(=O)=O)cc1` (as salt: HCl) [compound 68, 5-amino-1-(4-sulfamoylphenyl)-4-[3-(pyridin-3-yl)benzoyl]pyrazole], for which the melting point was over 300 °C. Same read-out and setting: the same measure for `Nc1c(C(=O)c2cccc(CCCN3CCS(=O)(=O)CC3)c2)cnn1-c1ccc(F)cc1F` [compound 92, 5-amino-1-(2,4-difluorophenyl)-4-[3-{3-(S,S-dioxo-thiomorpholin-4-yl)propyl}benzoyl]pyrazole]: 123.8 to 125.9 °C. `N#CCCCOc1cccc(C(=O)c2cnn(-c3ccc(F)cc3)c2N)c1` [compound 27]: the IC50 in data set [1] is 0.83 µM; on p38 MAP kinase it was 2.72 µM. Molecule `CC1(C)OCC(COc2cccc(C(=O)c3cnn(-c4ccc(F)cc4)c3N)c2)O1` (stereo in doubt) [compound 170, 5-amino-1-(4-fluorophenyl)-4-{3-[(2,2-dimethyl-1,3-dioxolan-4(S)-yl)methoxy]benzoyl}pyrazole] yielded a melting point of 78.3 to 80 °C. Same read-out and setting: the same measure for `Nc1c(C(=O)c2cccc(CN3CCC(O)CC3)c2)cnn1-c1ccc(F)cc1F` [compound 133]: 141.5 to 145.5 °C; for `Nc1c(C(=O)c2cccc(CCc3cccnc3)c2)cnn1-c1ccc(F)cc1F` [compound 91, 5-amino-1-(2,4-difluorophenyl)-4-[3-(3-pyridylethyl)benzoyl]pyrazole]: 153.4 to 153.7 °C. Still for that read-out and setting: the result for `Cc1ccc(-n2ncc(C(=O)c3cccc(-c4cccnc4)c3)c2N)cc1` (as salt: HCl) [compound 65, 5-amino-1-(4-methylphenyl)-4-[3-(pyridin-3-yl)benzoyl]pyrazole] reads 281.3 to 282.8 °C.

Consider `Nc1c(C(=O)c2cccc(C#CCN3CCCCC3)c2)cnn1-c1ccc(F)cc1` [compound 9, 5-amino-1-(4-fluorophenyl)-4-[3-{3-(piperidin-1-yl)prop-1-ynyl}benzoyl]pyrazole.HCl], for which the IC50 at p38 MAP kinase was 1.32 µM.

Turning to `Nc1c(C(=O)c2cccc(C(O)CO)c2)cnn1-c1ccc(F)cc1F` (stereo not shown) [compound 103, 5-amino-1-(2,4-difluorophenyl)-4-[3-(1,2-dihydroxyethyl)benzoyl]pyrazole], the melting point was 59 to 64 °C. Consider `Nc1c(C(=O)c2cccc(CN3CCCCC3)c2)cnn1-c1ccc(F)cc1F` [compound 86, 5-Amino-1-(2,4-difluorophenyl)-4-[3-(1-piperidinylmethyl)benzoyl]pyrazole], for which the melting point lay within 116.6 to 118.6 °C. For the molecule `Nc1c(C(=O)c2cccc(CCS(N)(=O)=O)c2)cnn1-c1ccc(F)cc1` [compound 50, 5-Amino4-[3-(2-aminosulfonylethyl)benzoyl]-1-(4-fluorophenyl)pyrazole], the IC50 at p38 MAP kinase came to 1.25 µM. The molecule `CC(C)(O)C#Cc1cccc(C(=O)c2cnn(-c3ccc(F)cc3)c2N)c1` [compound 87, 5-amino-1-(4-fluorophenyl)-4-[3-(3-hydroxy-3-methyl-but-1-ynyl)benzoyl]pyrazole] gave a melting point of 152.6 to 153.1 °C.

The values are drawn from patent US6444696B1, “Pyrazole derivatives P38 MAP kinase inhibitors” (Syntex (U.S.A.) LLC, priority 1998, dated 2002).
